Experimental data reported in patent publication US7879887B2, “α-amino acid derivatives and medicaments containing the same as an active ingredient” (Nissan Chemical Industries, Ltd., priority 2006, dated 2011).

Experiments:
CDK2/Cyclin E complex = CDK2/Cyclin E complex (Homo sapiens, UniProt P24941); test: In vitro kinase assay, CDK2/Cyclin E complex; format: biochemical; details: recombinant protein (Upstate); read-out: CDK2/cyclinE IC50
Description: (§1) Inhibitory activity against Aurora A, CDK1/Cyclin B complex, CDK2/Cyclin E complex and CDK3/Cyclin E complex were measured by in vitro kinase assay using recombinant proteins.

CDK1/Cyclin B complex = target: T1, CDK1/Cyclin B complex (Homo sapiens, UniProt P06493); test: In vitro kinase assay, CDK1/Cyclin B complex; format: biochemical; details: recombinant protein (Upstate)
T1 construct: purchased Upstate Inc. 14-450
Description: (§2) Inhibitory activity against Aurora A, CDK1/Cyclin B complex, CDK2/Cyclin E complex and CDK3/Cyclin E complex were measured by in vitro kinase assay using recombinant proteins. The assays were carried out by using recombinant proteins (Upstate Inc.) for Aurora A, CDK1/Cyclin B complex, CDK2/Cyclin E complex and CDK3/Cyclin E complex (respective cat. nos. 14-511, 14-450, 14-448 and 14-487), in accordance with the procedure described in the product instructions thereof. The 50% inhibitory concentrations (IC50 values) were calculated by assigning measured values in the case of not containing a test compound to an inhibition of 0%, and assigning measured values in the case of not containing a test compound and enzyme to an inhibition of 100%.

CDK3/Cyclin E complex = target: T2, CDK3/Cyclin E complex (Homo sapiens, UniProt Q00526); test: In vitro kinase assay, CDK3/Cyclin E complex; format: biochemical; details: recombinant protein (Upstate); read-out: CDK3/cyclinE IC50
T2 construct: purchased Upstate Inc. 14-487
Description: as §1

leukemia cell line KG-1a = test: Cell proliferation inhibitory activity, KG-1a; format: cell-based; details: Homo sapiens, 96 h, cells counted 4 days later with Cell Counting Kit-8
Description: (§3) Evaluations were carried out using colon carcinoma cell line SW620 (Cat. No. CCL-227), lung carcinoma cell line NCI-H460 (Cat. No. HTB-177), prostate cancer cell line DU 145 (Cat. No. HTB-81), breast cancer cell line MDA-MB-231 (Cat. No. HTB26) and leukemia cell line KG-1a (Cat. No. CCL-246.1) purchased from ATCC, pancreatic cancer cell line MIAPaCa-2 (Cat. No. CRL-1420) purchased from Dainippon Pharmaceutical, and ovarian cancer cell line IGROV1 received from the Netherland Cancer Institute. The cells were cultured under the conditions recommended by the supplier for each cell line, or with respect to IGROV1, according to the method described in Cancer Res. 59: 4559-4563, 1999. Cells suspended in media were added to solutions containing the test substances at various concentrations followed by culturing in a 5% CO2 incubator at 37° C. The numbers of cells were counted 4 days later with the Cell Counting Kit-8. IC50 values were calculated by assigning measured values in the case of not containing a test substance to an inhibition of 0%, and assigning measured values in the case of not containing a test substance or cells to an inhibition of 100%.

[1] = system: colon carcinoma cell line SW620; test: Cell proliferation inhibitory activity, SW620; format: cell-based, human; details: Homo sapiens, SW-620, 96 h, cells counted 4 days later with Cell Counting Kit-8
Description: as §3

Aurora A = target: T3, Aurora A (Homo sapiens, UniProt O14965); test: In vitro kinase assay, Aurora A; format: biochemical; details: recombinant protein (Upstate)
T3 construct: purchased Upstate Inc. 14-511
T3 sequence (O14965 1-403): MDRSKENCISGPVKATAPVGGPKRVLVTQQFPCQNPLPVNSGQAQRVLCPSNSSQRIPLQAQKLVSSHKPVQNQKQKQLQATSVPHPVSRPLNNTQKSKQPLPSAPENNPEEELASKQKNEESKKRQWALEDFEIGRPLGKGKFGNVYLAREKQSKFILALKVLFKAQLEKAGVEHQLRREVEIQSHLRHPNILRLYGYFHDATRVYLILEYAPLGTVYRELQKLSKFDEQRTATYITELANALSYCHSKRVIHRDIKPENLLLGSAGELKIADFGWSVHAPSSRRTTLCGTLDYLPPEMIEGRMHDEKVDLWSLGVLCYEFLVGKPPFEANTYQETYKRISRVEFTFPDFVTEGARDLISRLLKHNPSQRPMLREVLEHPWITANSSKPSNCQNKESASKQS
Description: as §2

[2] = system: lung carcinoma cell line NCI-H460; test: Cell proliferation inhibitory activity, NCI-H460; format: cell-based; details: Homo sapiens, 96 h, cells counted 4 days later with Cell Counting Kit-8
Description: as §3

recombinant human βARK1 = target: T4, recombinant human βARK1 (Homo sapiens, UniProt P25098); test: Inhibitory activity against βARK1 (33P phosphorylation of synthetic peptide); format: biochemical; details: recombinant human βARK1, 60 minutes at room temperature
T4 construct: made in house; host or cells: Sf-9 insect cells (baculovirus, pBacPAK8)
T4 sequence (P25098 1-689): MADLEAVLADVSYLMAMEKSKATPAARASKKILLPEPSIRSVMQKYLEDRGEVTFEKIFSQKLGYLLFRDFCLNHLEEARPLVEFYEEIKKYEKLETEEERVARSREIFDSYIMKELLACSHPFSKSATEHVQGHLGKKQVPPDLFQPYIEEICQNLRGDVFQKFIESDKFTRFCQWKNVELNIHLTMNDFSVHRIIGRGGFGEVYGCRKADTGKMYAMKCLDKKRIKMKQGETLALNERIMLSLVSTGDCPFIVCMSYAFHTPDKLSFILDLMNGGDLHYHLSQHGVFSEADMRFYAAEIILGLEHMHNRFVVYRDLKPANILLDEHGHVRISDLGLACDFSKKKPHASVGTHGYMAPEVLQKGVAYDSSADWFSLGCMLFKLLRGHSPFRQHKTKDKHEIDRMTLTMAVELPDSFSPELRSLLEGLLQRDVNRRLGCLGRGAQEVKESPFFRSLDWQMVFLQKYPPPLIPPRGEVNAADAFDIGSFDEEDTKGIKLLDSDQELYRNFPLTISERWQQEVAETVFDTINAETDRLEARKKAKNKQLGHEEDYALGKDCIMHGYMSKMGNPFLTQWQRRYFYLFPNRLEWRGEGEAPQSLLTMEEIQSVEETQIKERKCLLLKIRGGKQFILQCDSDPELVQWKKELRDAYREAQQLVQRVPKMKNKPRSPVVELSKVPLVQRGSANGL
Description: Human βARK1 was amplified by PCR based on the base sequence of human βARK1 mRNA registered in GenBank (Accession No. M80776) using a human leukocyte cDNA library (Gibco BRL Cat. No. 10421-022) as a template. The amplified cDNA fragment was inserted into a pBacPAK8 vector (Clontech) to construct a plasmid.
Recombinant human βARK1 was expressed using the BacPAK Baculovirus Expression System (Clontech, Cat. No. K1601-1). 1×10^6 Sf-9 cells were adhered to a 35 mm dish in 2.5 mL of TMN-FH Insect Medium containing 10 vol % FBS (Pharminogen, Cat. No. PM-21227M) and cultured overnight at 27° C. On the following day, the medium was removed and 500 ng of the above plasmid, BacPAK6 viral DNA cleaved with Bsu36I (5 μL) and 1.5 mL of the same medium mixed with 4 μL of Bacfectin were added followed by culturing for 5 hours, further adding 1.5 mL of medium and subsequently culturing for 5 days. […] The culture supernatant after 5 days was recovered and a plaque assay was carried out to isolate single plaques. These were then infected into Sf-9 cells and the resulting culture supernatant was designated as Passage 1 (1−3×10^11 pfu/mL). Passage 1 was added to 3×10^7 Sf-9 cells to a multiplicity of infection (MOI) of 0.1 (pfu/cell), suspension culturing was carried out for 5 days using a spinner flask, and the resulting culture supernatant was designated as Passage 2 (4×10^10 pfu/mL) and used as a viral liquid for large-volume expression.
Sf-9 cells at 3×10^9 cells/200 mL were infected by adding Passage 2 to an MOI of 100 followed by addition of medium to bring to a liquid volume of 2 L and further culturing for 3 days. After recovering the cells by centrifugation and washing three times with PBS, the cells were suspended in 100 mL of Lysis Buffer (20 mmol/L HEPES-HCl (pH 7.2), 5 mmol/L EDTA, 3 mmol/L phenylmethylsulfonyl fluoride (PMSF)). After lysing the cells by ultrasonic treatment at low temperature, the supernatant was recovered by centrifuging (45,000×g, 15 minutes) (sup1). NaCl was added to the resulting supernatant to a final concentration of 250 mmol/L followed by ultracentrifugation (300,000×g, 60 minutes) and using the subsequent supernatant as a crude cell extract (sup2).
Purification was carried out with reference to the literature (Benovic, J. L., Methods Enzymol. 1991; 200: 351-362; Kim, C. M. et al., Receptor 1993; 3: 39-55; Sohlemann, P. et al., FEBS Letters 1993; 324: 59-62). The crude cell extract was accurately brought to a volume of 400 mL with Buffer C (20 mmol/L HEPES-HCl (pH 7.2), 5 mmol/L EDTA, 0.02 vol % Triton X-100) followed by loading onto a 50 mL SP-Sepharose FF (Amersham Pharmacia Biotech) column equilibrated with Buffer C. […] ETA was carried out on each fraction using anti-GRK2 antibody (Santa-Cruz Cat. No. SC-562) and the positive fractions were collected (GRK2=βARK1). This was then diluted three-fold with Buffer C and loaded on a 5 mL HiTrap Heparin column (Amersham Pharmacia Biotech) column equilibrated with Buffer C. After washing the column with Wash Buffer (100 mmol/L NaCl, Buffer C), the column was eluted with an NaCl concentration gradient (100 to 600 mmol/L NaCl for 100 minutes, flow rate: 1 mL/min). The positive fractions as determined by ETA were collected and stored in a freezer at −80° C.
A synthetic peptide having an amino acid sequence of biotinated-[…] was used in accordance with a previous report (Chen, C. Y. et al., J. Biol. Chem. 1993; 268: 7825-7831). This synthetic peptide can also be synthesized with reference to known synthesis methods (for example, Chen, C. Y. et al., J. Biol. Chem. 1993; 268: 7825-7831, Biochemistry 1991; 30: 5118-5125). 2 μl of a DMSO solution in which the test compound was diluted to as to be […] the final concentration was dispensed into a 96-well plate (round bottom) (Falcon 351190) (final concentration: 4 vol % DMSO). […]

[3] = system: prostate cancer cell line DU 145; test: Cell proliferation inhibitory activity, DU 145; format: cell-based, human; details: Homo sapiens, 96 h, cells counted 4 days later with Cell Counting Kit-8
Description: as §3

T1 sequence (P06493 whole entry): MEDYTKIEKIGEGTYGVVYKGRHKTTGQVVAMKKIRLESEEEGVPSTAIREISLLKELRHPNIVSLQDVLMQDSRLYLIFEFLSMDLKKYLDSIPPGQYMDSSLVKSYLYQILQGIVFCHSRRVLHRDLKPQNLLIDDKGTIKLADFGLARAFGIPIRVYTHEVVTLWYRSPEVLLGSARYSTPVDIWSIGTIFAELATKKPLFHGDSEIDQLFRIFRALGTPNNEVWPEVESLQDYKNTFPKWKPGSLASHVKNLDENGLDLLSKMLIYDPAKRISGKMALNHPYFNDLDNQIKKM
T1 sequence (P14635 whole entry partner): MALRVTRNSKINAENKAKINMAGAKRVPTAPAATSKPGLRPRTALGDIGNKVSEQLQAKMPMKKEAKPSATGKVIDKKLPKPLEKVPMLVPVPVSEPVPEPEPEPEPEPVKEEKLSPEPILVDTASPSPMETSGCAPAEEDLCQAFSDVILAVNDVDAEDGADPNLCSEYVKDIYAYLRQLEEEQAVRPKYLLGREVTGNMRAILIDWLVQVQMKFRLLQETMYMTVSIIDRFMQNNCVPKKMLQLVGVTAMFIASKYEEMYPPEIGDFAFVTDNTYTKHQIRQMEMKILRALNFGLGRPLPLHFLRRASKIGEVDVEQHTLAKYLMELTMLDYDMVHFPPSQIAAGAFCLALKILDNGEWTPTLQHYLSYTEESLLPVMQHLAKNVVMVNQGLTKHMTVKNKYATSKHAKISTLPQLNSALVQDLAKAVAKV
T2 sequence (Q00526 whole entry): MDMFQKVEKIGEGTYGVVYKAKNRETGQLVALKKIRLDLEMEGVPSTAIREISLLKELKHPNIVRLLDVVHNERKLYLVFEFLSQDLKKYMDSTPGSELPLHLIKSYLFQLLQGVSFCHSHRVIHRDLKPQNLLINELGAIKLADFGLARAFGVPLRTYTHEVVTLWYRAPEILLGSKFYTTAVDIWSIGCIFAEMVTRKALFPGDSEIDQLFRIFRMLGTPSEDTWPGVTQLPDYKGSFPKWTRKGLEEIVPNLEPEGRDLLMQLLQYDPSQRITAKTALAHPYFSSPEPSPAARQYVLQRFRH
T2 sequence (P24864 whole entry partner): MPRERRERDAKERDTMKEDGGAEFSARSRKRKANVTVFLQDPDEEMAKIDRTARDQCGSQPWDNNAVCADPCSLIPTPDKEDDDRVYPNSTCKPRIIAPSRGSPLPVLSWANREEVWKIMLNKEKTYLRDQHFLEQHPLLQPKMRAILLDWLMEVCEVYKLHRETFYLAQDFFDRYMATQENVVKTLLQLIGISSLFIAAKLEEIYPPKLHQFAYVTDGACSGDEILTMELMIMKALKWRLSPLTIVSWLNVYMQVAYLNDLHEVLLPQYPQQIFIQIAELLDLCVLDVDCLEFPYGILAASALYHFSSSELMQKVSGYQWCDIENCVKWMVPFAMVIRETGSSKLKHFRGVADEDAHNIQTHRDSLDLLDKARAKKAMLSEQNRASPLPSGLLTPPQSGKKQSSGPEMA

| SMILES | IC50 (CDK2/Cyclin E complex) [nM] | IC50 (CDK1/Cyclin B complex) [nM] | IC50 (CDK3/Cyclin E complex) [nM] | IC50 (leukemia cell line KG-1a) [nM] | IC50 [1] [nM] | IC50 (Aurora A) [nM] | IC50 [2] [nM] | IC50 (recombinant human βARK1) [nM] | IC50 [3] [nM] |
| --- | --- | --- | --- | --- | --- | --- | --- | --- | --- |
| O=C(CNc1ccc(Cl)cc1)Nc1nc2ccc3[nH]ncc3c2s1 [compound 9] | 40 | 372 | 81 | < 100 |  |  |  |  |  |
| CC(C)CC(Nc1cccc(O)c1)C(=O)Nc1nc2ccc3[nH]ncc3c2s1 (centres unmarked) [compound 25] | 366 |  | 448 | < 100 | 1600 | 137 | 3200 |  |  |
| CC(=O)Nc1cc(NC(C(=O)Nc2nc3c(C(F)(F)F)cc4[nH]ncc4c3s2)c2ccccc2)ccc1Cl (centres unmarked) [compound 30] | 172 |  | 128 |  | 1800 |  | 4100 | 9.8 | 2700 |
| CCC(=O)Nc1cc(NC(C)(C)C(=O)Nc2nc3c(C(F)(F)F)cc4[nH]ncc4c3s2)ccc1Cl [compound 56] | 390 |  | 304 | 400 | 1100 |  | 2500 | 3.2 | 2500 |
| CC(C)(Nc1cccc(C(=O)NCC(=O)OCCO)c1)C(=O)Nc1nc2c(C(F)(F)F)cc3[nH]ncc3c2s1 [compound 86] | 274 | 483 | 85 |  |  | 66 |  |  |  |
| CC(C)(Nc1ccc(Cl)nc1)C(=O)Nc1nc2c(C(F)(F)F)cc3[nH]ncc3c2s1 [compound 96] | 347 |  | 277 |  | 2300 |  | 3900 |  | 3600 |
| CC(C)(Nc1ccc(Cl)c(-n2cc[nH]c2=O)c1)C(=O)Nc1nc2c(C(F)(F)F)cc3[nH]ncc3c2s1 [compound 97] |  |  | 279 |  |  |  |  | 12 |  |
| CC(C)(Nc1cccc(C(=O)NCCC(N)=O)c1)C(=O)Nc1nc2c(C(F)(F)F)cc3[nH]ncc3c2s1 [compound 101] | 30 | 39 | 21 |  | 2000 | 118 |  |  | 4400 |
| CC(C)(Nc1ccc(Cl)c(C(=O)NCCCS(N)(=O)=O)c1)C(=O)Nc1nc2c(C(F)(F)F)cc3[nH]ncc3c2s1 [compound 102] | 76 | 105 | 30 |  |  | 39 |  |  |  |
| CC(C)(Nc1ccc(Cl)c(C(=O)O)c1)C(=O)Nc1nc2c(C(F)(F)F)cc3[nH]ncc3c2s1 [compound 136] | 295 | 446 | 99 |  |  | 19 |  |  |  |
| CC(C)(Nc1ccc(Cl)c(C(=O)NCCC(=O)O)c1)C(=O)Nc1nc2c(C(F)(F)F)cc3[nH]ncc3c2s1 [compound 139] | 168 | 238 | 70 |  |  | 106 |  | 7.9 |  |
| CC(C)(Nc1cccc(C(=O)NCCCC(=O)O)c1)C(=O)Nc1nc2c(C(F)(F)F)cc3[nH]ncc3c2s1 [compound 140] | 428 | 446 | 160 |  |  | 247 |  |  |  |
| CC(C)(Nc1ccc(Cl)c(C(=O)NCC(=O)O)c1)C(=O)Nc1nc2c(C(F)(F)F)cc3[nH]ncc3c2s1 [compound 145] | 194 | 259 | 134 |  |  | 76 |  | 7.7 |  |
